Data published in US9700042B2, “Nanoformulation of musk-derived bioactive ingredients for nanocosmetic applications” (priority 2014, dated 2017).

Test system: tested microorganisms fungi and bacteria
Assay: Anti-microbial activities (disc diffusion, all test organisms)
Format: cell-based
Conditions: filter paper discs
Procedure: Pathogenic Fungi: Aspergillus niger, Aspergillus fumigatus, Aspergillus flavus, Fusarium oxysporum and Candida albicans were cultured on sabaroud dextrous agar media (Oxioid CM 41) at 25° C.
Pathogenic bacteria: Staphylococcus aureus and Pseudomonas aeroginosa were cultured on Mueller Hinton media (Oxioid CM 41) at 37° C.
Biological activity: Antimicrobial activities of the 3-hydroxyl p-Anisaldehyde (C8H8O3) and p-Hydroxy-acetophenone (C8H8O2) compounds were tested against the fungal species Aspergillus niger, Aspergillus fumigatus, Aspergillus flavus, Fusarium oxysporum and Candida albicans. […]
Antifungal activities: The agar disc diffusion method was used to evaluate the antifungal activities of the tested compounds (Bauer, A.W., et al., Antibiotic susceptibility testing by a standard single disk diffusion method, Amer. J. Clin. Pathol. 45:493-496 (1966)). […] The diameter of the inhibition zones were measured in millimeters after 4 days at 25±2° C. […]
Antibacterial activities: Antibacterial activities of the tested compounds were employed by used the agar disc diffusion method Hasenekoglu (1990). Suspension of the tested bacteria (10^6 CFU/μl ,O.D was measured calorimetry using spectrophotometer (Spectro, labomed, Inc.) at […]) were spread on Mueller Hinton Agar (Oxioid). […] The diameter of the inhibition zones were measured in millimeters after 24 h at 37° C. […]

CC(=O)c1ccc(O)cc1 [p-Hydroxyacetophenone]
Inhibition of growth of tested microorganisms (clear zones around discs): have the ability to inhibit the growth
